The values below come from ChEMBL document CHEMBL4321852, “Structure-Based and Property-Driven Optimization of N-Aryl Imidazoles toward Potent and Selective Oral RORγt Inhibitors” (J Med Chem, 2019).

The structures appear in SMILES notation. pIC50: −log10 of the molar value.

The target of data set [1] is T1, Nuclear receptor ROR-gamma (Homo sapiens, UniProt P51449).
T1 sequence (P51449 whole entry): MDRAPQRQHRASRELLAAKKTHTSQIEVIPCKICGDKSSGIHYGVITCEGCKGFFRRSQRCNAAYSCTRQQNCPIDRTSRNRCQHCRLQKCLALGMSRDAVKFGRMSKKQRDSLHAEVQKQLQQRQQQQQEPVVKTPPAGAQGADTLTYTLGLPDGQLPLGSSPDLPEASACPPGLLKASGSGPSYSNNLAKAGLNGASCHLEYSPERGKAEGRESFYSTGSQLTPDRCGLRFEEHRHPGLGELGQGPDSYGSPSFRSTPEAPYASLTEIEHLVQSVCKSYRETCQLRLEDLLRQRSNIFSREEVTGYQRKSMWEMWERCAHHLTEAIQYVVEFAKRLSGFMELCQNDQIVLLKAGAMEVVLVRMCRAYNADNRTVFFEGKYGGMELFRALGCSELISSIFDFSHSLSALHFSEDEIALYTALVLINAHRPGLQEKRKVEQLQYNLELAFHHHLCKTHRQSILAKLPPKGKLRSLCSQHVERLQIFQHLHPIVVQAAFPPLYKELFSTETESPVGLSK
Nature of the data set: Inverse agonist activity at RORgammat in human whole blood assessed as reduction in Con A/IL-23-stimulated IL-17 secretion after 72 hrs by ELISA. It counts as tissue-based. (ELISA stands for enzyme-linked immunosorbent assay.)

The target of a further data set is T2, Vitamin D3 receptor (Homo sapiens, UniProt P11473).
T2 sequence (P11473 whole entry): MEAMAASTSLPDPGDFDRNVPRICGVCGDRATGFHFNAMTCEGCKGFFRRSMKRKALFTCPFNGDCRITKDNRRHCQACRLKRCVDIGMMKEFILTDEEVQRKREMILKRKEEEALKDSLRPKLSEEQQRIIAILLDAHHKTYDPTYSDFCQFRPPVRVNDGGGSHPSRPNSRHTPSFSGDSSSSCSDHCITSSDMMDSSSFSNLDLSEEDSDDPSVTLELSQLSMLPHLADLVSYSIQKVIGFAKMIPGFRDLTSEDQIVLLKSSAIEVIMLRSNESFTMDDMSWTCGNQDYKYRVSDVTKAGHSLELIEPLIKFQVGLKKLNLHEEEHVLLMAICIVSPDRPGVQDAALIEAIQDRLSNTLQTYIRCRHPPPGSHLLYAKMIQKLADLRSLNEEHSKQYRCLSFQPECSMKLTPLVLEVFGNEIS
The data set can be described thus: Inhibition of Gal4-tagged VDR LBD (unknown origin) by cell based luciferase reporter gene assay. On the technique in general: A reporter such as luciferase makes a cellular process visible.

Another data set deals with T3, Glucocorticoid receptor (Homo sapiens, UniProt P04150).
T3 sequence (P04150 whole entry): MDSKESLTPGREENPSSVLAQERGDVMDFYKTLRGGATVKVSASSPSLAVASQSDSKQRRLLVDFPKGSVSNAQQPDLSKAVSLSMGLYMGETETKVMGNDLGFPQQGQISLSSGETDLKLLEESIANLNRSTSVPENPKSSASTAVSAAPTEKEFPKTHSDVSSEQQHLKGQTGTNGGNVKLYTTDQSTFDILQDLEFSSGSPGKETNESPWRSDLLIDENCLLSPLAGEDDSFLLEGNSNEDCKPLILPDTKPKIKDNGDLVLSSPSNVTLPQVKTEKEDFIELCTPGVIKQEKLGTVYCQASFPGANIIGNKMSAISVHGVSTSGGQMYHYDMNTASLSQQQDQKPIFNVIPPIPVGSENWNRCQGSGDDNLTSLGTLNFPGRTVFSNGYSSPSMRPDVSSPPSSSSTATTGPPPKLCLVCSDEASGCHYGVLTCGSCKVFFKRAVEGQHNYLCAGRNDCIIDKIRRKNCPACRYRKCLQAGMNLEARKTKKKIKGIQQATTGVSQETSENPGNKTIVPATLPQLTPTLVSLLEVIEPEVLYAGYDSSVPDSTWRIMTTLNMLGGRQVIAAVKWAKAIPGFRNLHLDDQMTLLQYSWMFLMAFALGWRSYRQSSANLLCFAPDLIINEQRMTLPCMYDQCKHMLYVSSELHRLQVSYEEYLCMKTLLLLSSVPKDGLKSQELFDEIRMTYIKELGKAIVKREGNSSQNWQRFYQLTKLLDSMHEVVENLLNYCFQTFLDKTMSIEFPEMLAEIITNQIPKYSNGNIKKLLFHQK
The data set can be described thus: Inhibition of Gal4-tagged GR LBD (unknown origin) by cell based luciferase reporter gene assay.

Data set [2] in a line: Inhibition of RORgammat in rat CD4+ T-cells polarized with Th17 cytokine mix assessed as inhibition of IL-17 secretion.
Data set [3] is described as follows: Tmax in DA rat at 5 mg/kg, po. The format is ADME, organism-based. Particulars: in vivo.
For another data set, the system named is Rattus norvegicus. The data set can be described thus: Anti-inflammatory activity in mBSA/CFA-immunized Lewis rat delayed-type hypersensitivity model assessed as reduction in frequencies of IL-17-producing draining lymph node cells at 1 to 15 mg/kg, po via gavage administered twice daily for 2 days treated prior to mBSA/CFA challenge relative to control. The arrangement: scale not given: the % may be the effect or the level left. It counts as functional.

A further data set deals with T4, Bile acid receptor (Homo sapiens, UniProt Q96RI1).
T4 sequence (Q96RI1 whole entry): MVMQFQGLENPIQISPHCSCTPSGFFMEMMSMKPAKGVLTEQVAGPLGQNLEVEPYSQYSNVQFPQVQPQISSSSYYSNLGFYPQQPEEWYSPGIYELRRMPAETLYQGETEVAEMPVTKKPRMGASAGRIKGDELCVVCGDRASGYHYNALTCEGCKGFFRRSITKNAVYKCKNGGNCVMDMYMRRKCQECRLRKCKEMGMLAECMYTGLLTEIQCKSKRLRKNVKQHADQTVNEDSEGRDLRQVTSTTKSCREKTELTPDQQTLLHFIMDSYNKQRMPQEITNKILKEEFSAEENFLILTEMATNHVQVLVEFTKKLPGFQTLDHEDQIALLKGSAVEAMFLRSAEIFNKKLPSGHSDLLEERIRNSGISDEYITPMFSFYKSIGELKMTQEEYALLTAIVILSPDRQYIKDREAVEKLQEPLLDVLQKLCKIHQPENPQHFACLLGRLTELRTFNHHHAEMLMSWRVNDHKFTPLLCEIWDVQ
Nature of the data set: Inhibition of Gal4-tagged FXR LBD (unknown origin) by cell based luciferase reporter gene assay.

Data set [4] can be described thus: Clearance in Sprague-Dawley rat at 1 mg/kg, iv. The format is ADME, organism-based. Conditions: in vivo.
The target in another data set is Cytochrome P450 3A4 (Homo sapiens, UniProt P08684). The data set can be described thus: Time dependent inhibition of CYP3A4 (unknown origin). The format is ADME. Set-up: concentration or dose not given beside the values.
Cytochrome P450 3A4, sequence (P08684 whole entry): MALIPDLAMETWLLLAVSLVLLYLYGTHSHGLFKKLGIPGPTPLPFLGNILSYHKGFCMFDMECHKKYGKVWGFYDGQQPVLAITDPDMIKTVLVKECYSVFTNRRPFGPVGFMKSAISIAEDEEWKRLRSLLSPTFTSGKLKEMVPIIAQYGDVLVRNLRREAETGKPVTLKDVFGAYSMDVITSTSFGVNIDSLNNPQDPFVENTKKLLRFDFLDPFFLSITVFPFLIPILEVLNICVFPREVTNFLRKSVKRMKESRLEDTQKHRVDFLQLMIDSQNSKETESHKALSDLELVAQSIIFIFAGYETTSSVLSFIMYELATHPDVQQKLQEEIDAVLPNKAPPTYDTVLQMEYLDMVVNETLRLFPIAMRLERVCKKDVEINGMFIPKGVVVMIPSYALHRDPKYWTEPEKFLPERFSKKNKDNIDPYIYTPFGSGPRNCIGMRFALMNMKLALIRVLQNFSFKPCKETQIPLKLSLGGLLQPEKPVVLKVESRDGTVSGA

Turning to `Cc1c(C2(C(F)(F)F)CC2)nc(C2CC2)n1-c1c(Cl)ccc(N2CC3(CC(C(=O)O)C3)C2)c1Cl` (single isomer, unassigned; atropisomer), the negative logarithm of the IC50 (pIC50) (commonly the negative decadic logarithm of the IC50, by convention in mol/L) is 5.87 in data set [1]; below 5.00 against Vitamin D3 receptor; below 5.00 at Glucocorticoid receptor; 6.41 in data set [2]; below 5.00 on Bile acid receptor. Also, the Tmax (commonly the time from dosing to the highest level) in [3] turned out to be 1 h. Further, the Activity in the data set with Rattus norvegicus came out at 50%. Also, in [4], the clearance (commonly the volume of plasma or blood freed of the substance per unit of time) was found to be 2.7 mL/min/kg. This compound also gave a K on Cytochrome P450 3A4 of 0.005 min⁻¹.
